Key:
OCTN1 [1] = molecular target: T1, OCTN1 (Homo sapiens, UniProt Q9H015); experiment: uptake; assay type: cell-based
T1 sequence (Q9H015 1-551): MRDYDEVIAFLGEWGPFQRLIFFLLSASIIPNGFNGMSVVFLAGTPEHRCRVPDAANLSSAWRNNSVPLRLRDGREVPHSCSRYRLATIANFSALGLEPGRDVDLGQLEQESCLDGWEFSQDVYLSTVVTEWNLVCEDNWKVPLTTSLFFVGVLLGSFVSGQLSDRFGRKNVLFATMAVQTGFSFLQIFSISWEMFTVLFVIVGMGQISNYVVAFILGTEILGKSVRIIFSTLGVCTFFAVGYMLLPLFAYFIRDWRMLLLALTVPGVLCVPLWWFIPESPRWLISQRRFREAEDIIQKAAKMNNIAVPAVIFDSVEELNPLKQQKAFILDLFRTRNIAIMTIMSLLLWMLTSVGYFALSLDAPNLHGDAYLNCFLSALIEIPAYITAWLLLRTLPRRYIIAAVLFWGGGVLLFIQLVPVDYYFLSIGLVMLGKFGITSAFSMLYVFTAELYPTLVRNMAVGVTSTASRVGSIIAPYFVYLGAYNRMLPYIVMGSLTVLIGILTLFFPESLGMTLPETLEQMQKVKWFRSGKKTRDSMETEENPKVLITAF

OCTN1 [2] = molecular target: T1, OCTN1; experiment: uptake in OCTN1-transfected HEK293 cells; assay type: cell-based
OCTN1 [3] = molecular target: T1, OCTN1

| SMILES | uptake (1 μM, 5 min) in OCTN1-transfected HEK293 cells (OCTN1 [1]) | other results |
| --- | --- | --- |
| Nc1nc(Cl)nc2c1ncn2[C@@H]1O[C@H](CO)[C@@H](O)[C@@H]1F [clofarabine] | adenosine analogs (eg, clofarabine and fludarabine), and guanosine analogs (eg, ribavirin) | – |
| NC(=O)c1ncn([C@@H]2O[C@H](CO)[C@@H](O)[C@H]2O)n1 [ribavirin] | adenosine analogs (eg, clofarabine and fludarabine), and guanosine analogs (eg, ribavirin) | – |
| Nc1nc(F)nc2c1ncn2[C@@H]1O[C@H](CO)[C@@H](O)[C@@H]1O [fludarabine] | adenosine analogs (eg, clofarabine and fludarabine), and guanosine analogs (eg, ribavirin) | – |
| C[N+](C)(C)[C@@H](Cc1c[nH]c(=S)[nH]1)C(=O)[O-] [ergothioneine] | – | uptake in OCTN1-transfected HEK293 cells (transport efficiency) (OCTN1 [2]): 62 ± 8 µL/min/mg |
| CC[N+](CC)(CC)CC [tetraethylammonium] | – | carbon 14-labeled TEA uptake in OCTN1-transfected HEK293 cells (transport effici) (OCTN1 [3]): 1.1 ± 0.12 µL/min/mg |

Source: article PMC5419029 (Cancer research, 2017)
